The term IC50 denotes the concentration at which inhibition is half-maximal. Low readings indicate greater potency in that assay, high ones weaker potency in that assay.

This note sets out measurements from ChEMBL document CHEMBL1148306, “Reducing the peptidyl features of caspase-3 inhibitors: a structural analysis” (J Med Chem, 2004).

In this test the target is T1, Caspase-3 (Homo sapiens, UniProt P42574).
T1 sequence (P42574 whole entry): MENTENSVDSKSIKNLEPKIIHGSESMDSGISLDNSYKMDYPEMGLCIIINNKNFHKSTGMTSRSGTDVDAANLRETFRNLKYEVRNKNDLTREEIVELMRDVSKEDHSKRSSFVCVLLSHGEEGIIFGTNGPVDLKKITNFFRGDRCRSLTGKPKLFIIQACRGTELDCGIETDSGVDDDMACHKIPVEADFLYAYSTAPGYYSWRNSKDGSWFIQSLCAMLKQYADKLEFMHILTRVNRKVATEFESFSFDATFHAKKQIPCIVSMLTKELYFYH
Put plainly: Inhibitory concentration of compound against caspase-3.

The molecule `COc1ccc(Br)cc1CC(=O)N[C@H](C(=O)N[C@@H](CC(=O)O)C(=O)CSCc1ccccc1)C(C)C` registered an IC50 of 17.7 nM.
